Test results from paper PMC10017155 (Aging and Disease, 2023).

How the values were obtained:
transgenic mice = conditions: in contrast to normal Aβ; ref [23], [24]; cited from earlier work
Text: The development of AD comprises a cascade of pathogenic processes in brain tissue. Some of the major elements of this cascade are the aggregation of beta-amyloid (Aβ) with the formation of neurotoxic oligomers, hyperphosphorylation of tau, and neuroinflammation. […] In the sporadic form of AD, accounting for 95% of disease cases, the molecular triggers for the pathological cascade remain unknown. […] We hypothesized that the contribution of isoD7-Aβ to the development of AD is based on the formation of zinc-bound complexes that promote pathological aggregation of Aβ (Fig. 1A). […] Interaction of HAEE with beta-amyloid. (A) A model for the contribution of isoD7-Aβ to AD pathology, and the possible ways of preventing its deleterious effects. Aβ spontaneously converts into isoD7-Aβ, which is accumulated over age, likely due to reduced Aβ clearance. Isomerized Aβ promotes AD pathology, potentially via formation of Zn-bound complexes serving as the seeds for a generation of neurotoxic oligomers. Treatment with anti-isoAβ antibodies is a promising therapeutic strategy already showing effectiveness in AD model mice ^9.

isoD7-Aβ16 = assay: NMR titration, isoD7-Aβ16 with HAEE and Zn2+; type: binding; conditions: addition of Zn2+ without HAEE; disappearance of NMR signal (Supplementary Fig. 3); also ref [9]
Experimental: Peptides Aβ16, H6R-Aβ16 and isoD7-Aβ16 at the concentration of 0.2 - 8mM were dissolved in 10-20 mM bis-Tris-d19 (2,2-Bis(hydroxymethyl)-2,2′,2"-nitrilotrie-thanol-d19 with 98% ^2D enrichment) buffer solution (pH 6.8). Sodium salt of 3-(trimethylsilyl) propionic-2,2,3,3-d4 acid (DSS) at a concentration of 10-20 μM was added as the standard. NMR spectra were measured at 278 K in 90% H2O/10% D2O with Bruker AVANCE 600 MHz spectrometer equipped with triple resonance (^1H, ^13C and ^15N) pulsed field z gradient probe. 1D NMR spectra were processed and analyzed using the Mnova software (Mestrelab Research, Spain). In order to monitor peptide-peptide interactions NMR titration experiments were carried out. […] 1D spectra were recorded for each titration point.

[1] = compared with normal Aβ; ref [9]; cited from earlier work
Text: We hypothesized that the contribution of isoD7-Aβ to the development of AD is based on the formation of zinc-bound complexes that promote pathological aggregation of Aβ (Fig. 1A).

H6R-Aβ16 = conditions: ref [9]; cited from earlier work
Text: The dimeric form has a well-resolved characteristic signal of the V12 methyl group at 0.2 ppm, which allows for a quantitative assessment of the dimeric state. […] Thus, the ...

| Substance | Amyloidosis in transgenic mice (transgenic mice) | Effect of Zn2+ on isoD7-Aβ16 (oligomerization; NMR signal) (isoD7-Aβ16) | Zinc-dependent aggregation [1] | State of H6R-Aβ16 in the presence of Zn2+ (H6R-Aβ16) |
| --- | --- | --- | --- | --- |
| Ac-DAEFRH[isoD]SGYEVHHQK-NH2 [isoD7-Aβ16, reference compound] | stimulate amyloidosis | almost complete oligomerization and precipitation | increased capacity |  |
| Ac-DAEFRRDSGYEVHHQK-NH2 [H6R-Aβ16, Aβ1-16 variant with the English (H6R) mutation] |  |  |  | mixture of monomeric and dimeric forms |
